Earlier results, collected in patent US20180133147A1, “Drug Delivery Systems” (Novartis AG, priority 2013, published 2018).
Where two headings read alike, the source gives them in different places.

Q: For octreotide pamoate, which solubility in water (25° C.) is on record?
A: 200 µg/mL

Q: For vapreotide pamoate, which “solubility in phosphate buffer saline” value (PBS pH 7.4) is on record?
A: 20 to 40 µg/mL

Q: With pasireotide pamoate as the substance, how does the solubility in water read?
A: 20 µg/mL
